Results taken from US20110319398A1 (priority 2010, published 2011).

Key:
[1] = tested on: YopE leaked into culture supernatants; type: cell-based, Y. pseudotuberculosis; details: 60 μM compound, HEp-2 cells infected with WT Yptb, compared to DMSO
[2] = tested on: ExoS translocation from P. aeruginosa Pa388 into HEp-2 cells; type: cell-based
Yptb WT IP2666 = type: cell-based, Y. pseudotuberculosis; details: 60 μM compound, 26 C, 7 hrs
[3] = tested on: YopE translocation into HEp-2 cells; type: cell-based, Y. pseudotuberculosis; details: 60 μM compound; HEp-2 cells infected with Yptb, 45 minutes
[4] = tested on: YopE translocation into the cytosol of HEp-2 cells; type: cell-based, Y. pseudotuberculosis; details: 60 μM compound, compared to DMSO control
HEp-2 cells = assay: LDH release assay; type: cell-based; details: 60 μM compound, absence of Yptb
Protocol: Compounds were resuspended in RPMI supplemented with 5% FBS to a final concentration of 60 μM. Media was replaced with a volume of 100 μL and cells were incubated at 37 C and 5% CO2. A 50 μL sample was taken from the wells at 2 hrs and 24 hrs for quantification of LDH. LDH in supernatants was quantified using the Promega Cytotox 96 Non-Radioactive Cytotoxicity Assay Kit. Control samples for lysis in the absence of compounds were incubated for 45 minutes in Lysis Buffer (supplied in the kit) then collected at the same time points. The OD at 492 nm was measured spectrophotometrically on a SpectraMax 5 plate reader (Molecular Devices, Sunnyvale, Calif.).
The remaining 12 compounds were evaluated for toxicity to either Yptb or HEp-2 cells. […] The 9 non-antibacterial compounds were assessed for their ability to cause damage to epithelial cells by monitoring the release of lactate dehydrogenase (LDH), a cytoplasmic enzyme whose presence in cell supernatants indicates membrane damage. HEp-2 cells were incubated with 60 μM of each compound, in the absence of Yptb. Tissue culture supernatants were collected after 2 or 24 hours and assessed for LDH levels. […] In contrast, C35 had above baseline LDH release levels at 2 hours and this effect was exacerbated at 24 hours (FIG. 3B). […] Because of the high-level of toxicity caused by C35 at both time points, it was excluded from further characterization. In all subsequent experiments with the remaining 8 compounds, HEp-2 cells were exposed to compounds for 2 hours or less.

[5] = tested on: YscF polymer (TTSS needle); design: species or system Y. pseudotuberculosis; details: 60 μM compound, 1 mM BS3, Western blot with α-YscF
[6] = tested on: YadA-mediated autoagglutination; type: cell-based, Y. pseudotuberculosis; details: 60 μM C20, 3 hrs at 37 C
[7] = tested on: adherence of Yptb to HEp-2 cells; type: cell-based, Y. pseudotuberculosis
[8] = tested on: Sheep red blood cells infected with Yptb; type: cell-based
YscF = type: cell-based, Y. pseudotuberculosis; details: 60 μM compound, 5 mM CaCl2, 37 C, 1.5 hours
Yop secretion = type: cell-based, Y. pseudotuberculosis; details: 60 μM compound, secretion media (absence of calcium), 37 C
V. cholerae [9] = details: mouse, in vivo; cited from earlier work
V. cholerae [10] = details: cited from earlier work

Structure (SMILES) | YopE/Yop leakage into culture supernatants [1] | ExoS-dependent cell rounding [2] | Effect on bacterial growth (OD600) (Yptb WT IP2666) | LDH release at 24 hours (HEp-2 cells) | YscF cross-linking pattern (dimer crosslink) [5] | other results
CCOc1ccc(NC(=O)c2cnccn2)cc1 [Compound C7, N-(4-ethoxyphenyl)pyrazine-2-carboxamide] | significant leakage | little or no effect | no effect on bacterial growth | – | – | Inhibition of YopE-mediated cell rounding [3]: cell-rounding defect was weak; YopE translocation into HEp-2 cells [4]: did not inhibit translocation of YopE
O=C1NC2=C(C(=O)c3ccccc32)C(c2ccccc2)S1 (centres unmarked) [Compound C15, 4-phenyl-1,4-dihydroindeno[1,2-d][1,3]thiazine-2,5-dione] | significant leakage | little or no effect | no effect on bacterial growth | did not cause further membrane damage | weaker dimer crosslink | LDH release at 2 hours (HEp-2 cells; 2 hours): elevated LDH release
O=C(c1coc2nc3ccccc3nc12)N1CCN(c2ccccc2)CC1 [Compound C19, furo[3,2-b]quinoxalin-3-yl-(4-phenylpiperazin-1-yl)methanone] | significant leakage | little or no effect | no effect on bacterial growth | – | – | –
Cc1nn(-c2ccccc2)c(C)c1/N=C/c1c(O)ccc2ccccc12 [Compound C20, 1-[(E)-(3,5-dimethyl-1-phenyl-pyrazol-4-yl)iminomethyl]naphthalen-2-ol] | elevated levels of Yop leakage | reduced cell-rounding | no effect on bacterial growth | slightly elevated LDH release | weaker dimer crosslink | Autoagglutination activity of Yptb [6]: unaffected; Binding of Invasin-deleted (Δinv) Yptb to HEp-2 cells [7]: did not block the ability of C20 to further inhibit binding; Binding of Yptb to HEp-2 cells, of the levels of the DMSO-treated control ([7]; 60 μM compound, WT Yptb, ELISA): 15-20%; Hemolysis (leakage of hemoglobin) of SRBCs infected with Yptb [8]: slightly reduced leakage of hemoglobin
c1ccc2c(-c3csc(-c4ccncc4)n3)c[nH]c2c1 [Compound C24, 4-(1H-indol-3-yl)-2-(4-pyridyl)thiazole] | significant leakage | reduced cell-rounding | no effect on bacterial growth | slightly elevated LDH release | – | Surface YscF staining (YscF): reduced
Cc1ccc(NC(=O)Nc2cc3c(cc2N2CCCC2)n(C)c(=O)n3C)cc1C [Compound C34, 1-(1,3-dimethyl-2-oxo-6-pyrrolidin-1-yl-benzimidazol-5-yl)-3-(3,4-dimethylphenyl)urea] | elevated levels of Yop leakage | reduced cell-rounding | no effect on bacterial growth | – | consistently weaker | Ability to secrete Yops (Yop secretion): secreted less, but detectable levels of Yops; Inhibition of YopE-mediated cell rounding [3]: potent inhibitor of cell-rounding; YopE translocation into HEp-2 cells [4]: did not inhibit translocation of YopE
Cc1ccc(C2=N/C(=C/Nc3ccc4c(c3)OCCO4)C(=O)O2)cc1 [Compound C38, (4E)-4-[(2,3-dihydro-1,4-benzodioxin-6-ylamino)methylene]-2-(p-tolyl)oxazol-5-one] | elevated levels of Yop leakage | reduced cell-rounding | no effect on bacterial growth | – | – | Surface YscF staining (YscF): reduced
O=C(O)CCCN1C(=O)c2cccc3cccc(c23)C1=O [Virstatin] | – | – | – | – | – | Bacterial burden on mice infected with V. cholerae (V. cholerae [9]): reduces the bacterial burden; Effects on bacterial growth (V. cholerae [10]): without deleterious effects on bacterial growth
